One data set has as its system MCF-7 cell line. Put plainly: In vitro cytotoxicity on MCF-7 cell line. The format is cell-based. Conditions: MCF-7 human breast cancer cells; concentration inhibiting cell viability by 50%; mean of three values; read-out: IC50 (Mean ± SEM) MCF-7. An excerpt: (§1) In vitro bioassay on human cancer cell lines was adopted against two cancer cell lines (MCF-7 and HepG-2). HepG2, human hepatocellular carcinoma and MCF-7, human breast cancer cell lines were obtained from Sigma-Aldrich Chemie GmbH, Taufkirchen, Germany.

For another data set, the system named is HepG-2 cell line. Put plainly: In vitro cytotoxicity on HepG-2 cell line. The class given is cell-based. Conditions: HepG-2 human hepatocellular carcinoma cells, concentration inhibiting cell viability by 50%, mean of three values, read-out: IC50 (Mean ± SEM) HepG-2.
Excerpt: as §1

In a further data set the target is CDK-2 (Homo sapiens, UniProt P24941). In words: In vitro kinase inhibition, ELISA assay. The class given is biochemical. The note with it: mean of three values, read-out: IC50 (Mean±SEM) CDK-2. (An ELISA detects its analyte on a solid surface through an enzyme-linked reagent.)
A further data set addresses PDGFRβ (Homo sapiens, UniProt P09619). In words: In vitro kinase inhibition, ELISA assay. The format is biochemical. Conditions: mean of three values, read-out: IC50 (Mean±SEM) PDGFRβ.
A further data set concerns the target EGFR (Homo sapiens, UniProt P00533). Put plainly: In vitro kinase inhibition, ELISA assay. The format is biochemical. The note with it: mean of three values, read-out: IC50 (Mean±SEM) EGFR. The procedure:
The in vitro enzyme inhibition determination for compound 5c was carried out in confirmatory diagnostic unit, Vacsera, Egypt. […]

16 compounds from publication PMC6222410, “Design, Synthesis and Docking Studies of Novel Macrocyclic Pentapeptides as Anticancer Multi-Targeted Kinase Inhibitors” (Molecules : A Journal of Synthetic Chemistry and Natural …, 2018) can be followed below.

One may read the melting point as the temperature of the solid-liquid transition. Broadly, the IC50 is the concentration that inhibits the measured activity by half.

Read-outs that look alike come from different tables or passages of the source.

Sequence of EGFR (P00533 25-1210): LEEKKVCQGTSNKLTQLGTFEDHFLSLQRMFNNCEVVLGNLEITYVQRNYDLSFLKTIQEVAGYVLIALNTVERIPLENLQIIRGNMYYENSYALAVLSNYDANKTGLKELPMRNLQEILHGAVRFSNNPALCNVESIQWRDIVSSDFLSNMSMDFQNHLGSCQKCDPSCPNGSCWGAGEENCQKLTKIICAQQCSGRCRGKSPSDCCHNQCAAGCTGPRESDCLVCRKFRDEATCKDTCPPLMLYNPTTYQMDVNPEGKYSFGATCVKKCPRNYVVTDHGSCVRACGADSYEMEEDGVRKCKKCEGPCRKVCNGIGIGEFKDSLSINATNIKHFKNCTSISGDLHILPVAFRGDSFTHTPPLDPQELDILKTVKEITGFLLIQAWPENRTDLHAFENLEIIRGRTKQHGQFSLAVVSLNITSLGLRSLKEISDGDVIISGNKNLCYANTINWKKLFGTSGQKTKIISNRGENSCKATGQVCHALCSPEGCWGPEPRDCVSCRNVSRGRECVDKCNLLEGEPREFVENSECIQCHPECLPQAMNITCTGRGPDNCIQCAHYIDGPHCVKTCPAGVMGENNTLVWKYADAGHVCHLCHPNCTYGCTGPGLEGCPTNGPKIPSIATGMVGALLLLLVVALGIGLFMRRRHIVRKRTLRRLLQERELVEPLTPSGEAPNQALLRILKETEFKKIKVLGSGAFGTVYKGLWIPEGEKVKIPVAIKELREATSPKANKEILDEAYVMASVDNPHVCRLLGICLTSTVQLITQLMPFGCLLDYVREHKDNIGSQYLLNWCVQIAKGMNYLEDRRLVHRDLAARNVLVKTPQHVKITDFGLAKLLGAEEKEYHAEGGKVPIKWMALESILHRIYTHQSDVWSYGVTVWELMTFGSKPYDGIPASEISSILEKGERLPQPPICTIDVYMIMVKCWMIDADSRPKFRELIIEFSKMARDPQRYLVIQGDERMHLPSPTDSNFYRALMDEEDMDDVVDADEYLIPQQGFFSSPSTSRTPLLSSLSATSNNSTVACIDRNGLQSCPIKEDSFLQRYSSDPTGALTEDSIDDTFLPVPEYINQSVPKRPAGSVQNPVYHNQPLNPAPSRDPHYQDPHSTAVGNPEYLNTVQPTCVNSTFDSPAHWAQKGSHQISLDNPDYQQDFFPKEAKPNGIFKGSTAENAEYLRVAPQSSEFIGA
Sequence of PDGFRβ (P09619 33-1106): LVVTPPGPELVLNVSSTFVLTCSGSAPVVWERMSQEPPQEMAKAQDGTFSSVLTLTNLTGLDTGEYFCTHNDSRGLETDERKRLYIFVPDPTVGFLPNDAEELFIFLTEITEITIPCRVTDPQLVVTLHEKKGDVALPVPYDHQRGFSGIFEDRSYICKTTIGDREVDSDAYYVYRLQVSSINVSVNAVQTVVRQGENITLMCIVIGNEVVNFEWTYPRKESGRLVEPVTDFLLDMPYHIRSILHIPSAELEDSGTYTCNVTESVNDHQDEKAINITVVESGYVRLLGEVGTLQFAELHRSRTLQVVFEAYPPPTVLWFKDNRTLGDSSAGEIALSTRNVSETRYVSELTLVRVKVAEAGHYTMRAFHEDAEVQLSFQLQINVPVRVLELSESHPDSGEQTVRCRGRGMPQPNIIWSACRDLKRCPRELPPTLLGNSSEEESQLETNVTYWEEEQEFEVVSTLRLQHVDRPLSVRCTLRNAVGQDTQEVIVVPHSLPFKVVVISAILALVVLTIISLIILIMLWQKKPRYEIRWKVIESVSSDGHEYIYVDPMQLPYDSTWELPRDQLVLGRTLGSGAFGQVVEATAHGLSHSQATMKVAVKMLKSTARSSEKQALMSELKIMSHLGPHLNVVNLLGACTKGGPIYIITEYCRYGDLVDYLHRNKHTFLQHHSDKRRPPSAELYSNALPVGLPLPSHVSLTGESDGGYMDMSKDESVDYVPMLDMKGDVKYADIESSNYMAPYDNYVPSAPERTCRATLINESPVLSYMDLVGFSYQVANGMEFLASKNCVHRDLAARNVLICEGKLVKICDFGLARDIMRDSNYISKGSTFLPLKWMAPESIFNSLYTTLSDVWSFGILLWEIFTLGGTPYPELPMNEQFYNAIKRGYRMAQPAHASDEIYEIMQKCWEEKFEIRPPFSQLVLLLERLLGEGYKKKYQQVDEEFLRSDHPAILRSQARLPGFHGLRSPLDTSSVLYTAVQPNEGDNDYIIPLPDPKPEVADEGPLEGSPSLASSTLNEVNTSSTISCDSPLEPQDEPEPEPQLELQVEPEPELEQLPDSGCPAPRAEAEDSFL

`CC[C@H](C)[C@H](NC(=O)c1cccc(C(=O)N[C@H](C(=O)N[C@@H](Cc2ccccc2)C(=O)OC)[C@@H](C)CC)n1)C(=O)N[C@@H](Cc1ccccc1)C(=O)OC` [Compound 2b, N^α-Dipicolinoyl-bis[L-ILe-L-Phe-methyl ester]] registered a melting point of 122 to 124 °C. Besides, the IC50 with MCF-7 cell line was 32.6 ± 1.5 µM. Moreover, in the data set on HepG-2 cell line, the IC50 worked out at 15.8 ± 1.66 µM.
For `CC[C@H](C)[C@H](NC(=O)[C@H](Cc1ccccc1)NC(=O)c1cccc(C(=O)N[C@@H](Cc2ccccc2)C(=O)N[C@H](C(=O)OC)[C@@H](C)CC)n1)C(=O)OC` [Compound 2c, N^α-Dipicolinoyl-bis[L-Phe-L-ILe-methyl ester]] the same measures were 150 to 152 °C, > 100 µM and 35.5 ± 1.83 µM.
For `CC[C@H](C)[C@@H]1NC(=O)c2cccc(n2)C(=O)N[C@@H]([C@@H](C)CC)C(=O)N[C@@H]([C@@H](C)CC)C(=O)N[C@H](C(=O)NN)CCCCNC(=O)[C@H]([C@@H](C)CC)NC1=O` [Compound 6a, Cyclo-(N^α-dipicolinoyl)-bis[L-ILe-L-ILe]-L-Lys-NHNH2] the same measures were 180 to 182 °C, 11.8 ± 1.62 µM and 12.4 ± 1.3 µM.
In turn, `CC[C@H](C)[C@@H]1NC(=O)[C@H](Cc2ccccc2)NC(=O)c2cccc(n2)C(=O)N[C@@H](Cc2ccccc2)C(=O)N[C@@H]([C@@H](C)CC)C(=O)N[C@H](C(=O)OC)CCCCNC1=O` [Compound 4c, Cyclo-(N^α-Dipicolinoyl)-bis-[L-Phe-L-ILe]-L-Lys-OMe] yielded a melting point of 140 to 142 °C. In addition, the IC50 in the data set on MCF-7 cell line turned out to be 29.2 ± 1.39 µM. Further, the IC50 with HepG-2 cell line worked out at 18.8 ± 1.47 µM.
Take `CC[C@H](C)[C@H](NC(=O)[C@@H](NC(=O)c1cccc(C(=O)N[C@H](C(=O)N[C@H](C(=O)O)[C@@H](C)CC)[C@@H](C)CC)n1)[C@@H](C)CC)C(=O)O` [Compound 3a, N^α-Dipicolinoyl-bis[L-ILe-L-ILe]acid]: the melting point was in the range of 178 to 180 °C. The IC50 with MCF-7 cell line was > 100 µM. In addition, the IC50 in the data set with HepG-2 cell line turned out to be 26 ± 2.35 µM.
As to `O=c1[nH]cc(F)c(=O)[nH]1` [5-Fluorouracil®, 5-Fluorouracil, reference compound], the IC50 in the data set on HepG-2 cell line (HepG2) came out at 43.8 ± 1.84 µM.
Regarding `CC[C@H](C)[C@H](NC(=O)[C@H](Cc1ccccc1)NC(=O)c1cccc(C(=O)N[C@@H](Cc2ccccc2)C(=O)N[C@H](C(=O)O)[C@@H](C)CC)n1)C(=O)O` [Compound 3c, N^α-Dipicolinoyl-bis[L-Phe-L-ILe]acid], the melting point lay in the range of 202 to 204 °C. For the same compound, the half-inhibitory concentration (IC50) in the data set with MCF-7 cell line was determined as 29.6 ± 2.06 µM. For the same compound, the IC50 with HepG-2 cell line worked out at 26.6 ± 1.85 µM.
Consider `CC[C@H](C)[C@@H]1NC(=O)c2cccc(n2)C(=O)N[C@@H]([C@@H](C)CC)C(=O)N[C@@H](Cc2ccccc2)C(=O)N[C@H](C(=O)O)CCCCNC(=O)[C@H](Cc2ccccc2)NC1=O` [Compound 5b, Cyclo-(N^α-dipicolinoyl)-bis [L-ILe-L-Phe]-L-Lys-OH], for which the melting point lay within 128 to 130 °C. Further, the IC50 with MCF-7 cell line came out at 11.3 ± 1.15 µM. In the data set on HepG-2 cell line, the concentration for half-maximal inhibition (IC50) was 10.1 ± 2.05 µM.
For `CC[C@H](C)[C@@H]1NC(=O)c2cccc(n2)C(=O)N[C@@H]([C@@H](C)CC)C(=O)N[C@@H]([C@@H](C)CC)C(=O)N[C@H](C(=O)O)CCCCNC(=O)[C@H]([C@@H](C)CC)NC1=O` [Compound 5a, Cyclo-(N^α-dipicolinoyl)-bis [L-ILe-L-ILe]-L-Lys-OH] the same measures were 108 to 110 °C, 12.7 ± 2.4 µM and 11.2 ± 1.95 µM.
Consider `CC[C@H](C)[C@@H]1NC(=O)[C@H](Cc2ccccc2)NC(=O)c2cccc(n2)C(=O)N[C@@H](Cc2ccccc2)C(=O)N[C@@H]([C@@H](C)CC)C(=O)N[C@H](C(=O)O)CCCCNC1=O` [Compound 5c, Cyclo-(N^α-dipicolinoyl)-bis [L-Phe-L-ILe]-L-Lys-OH], for which the melting point lay in the range of 178 to 180 °C. At CDK-2, the IC50 worked out at 0.06 µM. Besides, in the data set with MCF-7 cell line, the IC50 turned out to be 9.41 ± 1.25 µM. The IC50 at PDGFRβ was found to be 0.08 µM. Moreover, the IC50 in the data set on HepG-2 cell line was determined as 7.53 ± 1.33 µM. The IC50 at EGFR came out at 0.14 µM.
`CC[C@H](C)[C@H](NC(=O)c1cccc(C(=O)N[C@H](C(=O)N[C@H](C(=O)OC)[C@@H](C)CC)[C@@H](C)CC)n1)C(=O)N[C@H](C(=O)OC)[C@@H](C)CC` [Compound 2a, N^α-Dipicolinoyl-bis[L-ILe-L-ILe-methyl ester]] yielded a melting point of 106 to 108 °C. Further, the IC50 with MCF-7 cell line stood at 31.6 ± 1.3 µM. Also, the IC50 with HepG-2 cell line came to 20.4 ± 1.36 µM.
For `CC[C@H](C)[C@@H]1NC(=O)[C@H](Cc2ccccc2)NC(=O)c2cccc(n2)C(=O)N[C@@H](Cc2ccccc2)C(=O)N[C@@H]([C@@H](C)CC)C(=O)N[C@H](C(=O)NN)CCCCNC1=O` [Compound 6c, Cyclo-(N^α-Dipicolinoyl)-bis[L-Phe-L-ILe]-L-Lys-NHNH2] the same measures were 208 to 210 °C, > 100 µM and 12.1 ± 1.68 µM.
For `CC[C@H](C)[C@@H]1NC(=O)c2cccc(n2)C(=O)N[C@@H]([C@@H](C)CC)C(=O)N[C@@H](Cc2ccccc2)C(=O)N[C@H](C(=O)NN)CCCCNC(=O)[C@H](Cc2ccccc2)NC1=O` [Compound 6b, Cyclo-(N^α-dipicolinoyl)-bis[L-ILe-L-Phe]-L-Lys-NHNH2] the same measures were 161 to 163 °C, 10.9 ± 1.1 µM and 11.5 ± 1.7 µM.
For the compound `CC[C@H](C)[C@@H]1NC(=O)c2cccc(n2)C(=O)N[C@@H]([C@@H](C)CC)C(=O)N[C@@H](Cc2ccccc2)C(=O)N[C@H](C(=O)OC)CCCCNC(=O)[C@H](Cc2ccccc2)NC1=O` [Compound 4b, Cyclo-(N^α-Dipicolinoyl)-bis-[L-ILe-L-Phe]-L-Lys-OMe], the melting point lay within 104 to 106 °C. Besides, the IC50 in the data set on MCF-7 cell line was 10.5 ± 1.33 µM. For the same compound, the IC50 in the data set on HepG-2 cell line was 10.2 ± 2.2 µM.
For `CC[C@H](C)[C@H](NC(=O)c1cccc(C(=O)N[C@H](C(=O)N[C@@H](Cc2ccccc2)C(=O)O)[C@@H](C)CC)n1)C(=O)N[C@@H](Cc1ccccc1)C(=O)O` [Compound 3b, N^α-Dipicolinoyl-bis[L-ILe-L-Phe]acid] the same measures were 184 to 186 °C, 25.3 ± 1.18 µM and 13.5 ± 1.45 µM.
For `CC[C@H](C)[C@@H]1NC(=O)c2cccc(n2)C(=O)N[C@@H]([C@@H](C)CC)C(=O)N[C@@H]([C@@H](C)CC)C(=O)N[C@H](C(=O)OC)CCCCNC(=O)[C@H]([C@@H](C)CC)NC1=O` [Compound 4a, Cyclo-(N^α-dipicolinoyl)-bis-[L-ILe-L-ILe]-L-Lys-OMe] the same measures were 77 to 79 °C, > 100 µM and 11.6 ± 2.7 µM.
